One may read the melting point as the temperature, or range, at which the solid turns liquid. For `COc1ccnc2c1cc(C)n2Cc1ccccc1`, the melting point was in the range of 129 to 131 °C.
Next, `O=C(O)c1ccc(CCCBr)cc1`: 120 °C; `COC(=O)CCCCC(C[N+](=O)[O-])SCC(=O)O` (stereo not given): 85 to 91 °C; `Cc1c(CCCCCCCCC(=O)O)cccc1C(=O)c1ccc(Cl)cc1`: 64 °C.
Next, `CCCc1nc2ccccc2n1Cc1ccc(C2CCCC2C(=O)O)cc1` (stereo not given): 179 to 180 °C; `CC(=O)C1(O)C=c2ccccc2=NC1C` (stereo not given): 54 to 56 °C.
The result for `CN1Cc2c(C(=O)OC(C)(C)C)ncn2-c2ccccc2C1=O` reads 216 to 217 °C.
For `C=C1c2cnccc2CC(=O)c2ccccc21`, the melting point fell in the range of 98 to 110 °C.
In turn, `COc1cccc(C(C)NC(=O)CCc2cnoc2-c2ccc(Cl)cc2)c1` (stereo not given) gave a melting point of 89 to 90 °C.
With `O=C(c1ccccc1)c1cnn2c(-c3cccc(C(F)(F)F)c3)ccnc12`, the melting point was in the range of 148 to 150 °C.
Next, `O=C(NCc1ccc(Cl)cc1)c1cnc2c(F)cc(-c3cc(Br)cs3)cc2c1O`: 281 to 283 °C; `CCCn1c(=O)c2[nH]c(C3CC4COCC4C3)nc2n(CCC)c1=O` (stereo not given): 226 to 230 °C.
The compound `CC1(CNc2ccccc2)SC2C(NC(=O)Cc3ccccc3)C(=O)N2C1C(=O)OCC(Cl)(Cl)Cl` (stereo not given) registered a melting point of 148 to 149 °C.
Next, `FC(F)(F)n1cc(Br)cn1`: 4 °C.
With `CC(=O)NC12CCCC(C1)C1CCC2C1` (stereo not given), the melting point lay in the range of 138 to 139 °C.
Compound `CC(C)(COS(N)(=O)=O)Oc1ccc(Cl)cc1` registered a melting point of 76 to 79 °C.
With `Cc1c(-c2ccccc2)oc2c(C(=O)OCCN3CCCCC3)cccc2c1=O`, the melting point was 85 to 86 °C.
As for `CCc1cc(=O)cc(CC)[nH]1`, the melting point was 103 to 110 °C.
The result for `FC(F)c1cccc(C=C2c3ccccc3CCc3ccccc32)c1` reads 92.5 °C.
The result for `O=C1NCCN1c1ccc(S(=O)(=O)Nc2ccc(Br)cc2)cc1` reads 237 to 239 °C; that for `CN(C)C(=O)Cc1ccc(CNC(=O)[C@@H](CCCNC(N)=N[N+](=O)[O-])NC(=O)C(c2ccccc2)c2ccccc2)cc1`, 198 to 200 °C; that for `COC(=O)C1=C(N)C(=O)NCC1`, 192 to 194 °C.
The compound `CCc1c(-c2ccc(OCc3ccccc3)cc2)c2cc(CO)c3cccc1n32` registered a melting point of 148 to 150 °C.
Next, `FC(F)(F)c1cnc2nc1Nc1cccc(c1)/C=C\c1cccc(c1)N2`: 167 to 169 °C; `CCOc1cc(O)c2cc(F)c(F)c(F)c2n1`: 171 °C.
The compound `CCN(CC)C(=O)CCCC1CCN(Cc2cnc3c(C)c(NC(=O)c4ccc(-c5ccc(F)cc5)cc4)ccc3c2)CC1` displayed a melting point of 145 to 146 °C.
The result for `O=C(O)c1cccc(C(=O)c2cc(Cl)cc(C(=O)c3ccccc3O)c2O)c1O` reads 127 to 130 °C; that for `C=CCn1cc(C(=O)OCC)c(=O)c2cc(F)c(Cl)cc21`, 162 to 164 °C.
Next, `Cc1cccc(NC(=O)N(C)c2nc(-c3ccccc3)c(-c3ccc(=O)n(C(C)C)n3)s2)c1`: 157 to 158 °C.
`COC(=O)[C@H](Cc1ccc(N)cc1)NC(C)=O` showed a melting point of 141 °C.
Next, `COC(=O)Cc1cc(=O)[nH]c2ccccc12`: 209 to 210 °C.
With `CCCCCCCCCCCCCCCCNc1ccc(C(=O)NS(=O)(=O)c2ccc([N+](=O)[O-])cc2)cc1`, the melting point is 130 to 131 °C.
The result for `O=C(O)C=C(c1ccccc1)c1ccc([N+](=O)[O-])cc1` reads 188 to 189 °C; that for `NS(=O)(=O)c1ccc(-c2cnn(CC3=CCCCC3)c(=O)c2-c2ccc(F)cc2)cc1`, 192 to 193 °C; that for `C[C@H](c1ccccc1)n1c(=O)c2c(Cl)cc(Cl)cc2n(Cc2ccccc2)c1=O`, 93 to 97 °C.
The result for `COC(=O)Cc1ccc2c(c1)CC(NS(=O)(=O)c1ccc(Cl)cc1)C2` (stereo not given) reads 80 to 82 °C.
Next, `Oc1ccc(-c2cnc3cnc(-c4ccc(O)cc4)nc3c2)cc1`: 307 to 308 °C; `CC(=O)N(C=CC(=Nc1ccccc1)Oc1ccccc1)c1ccccc1`: 120 °C.
Compound `CC(C)c1ccc(NC(=O)OC(C)(C)C)c(N)c1` showed a melting point of 100 to 101 °C.
`COc1cccc(C(=O)N(CC=O)c2ccccc2OC)c1`: the melting point lay within 77 to 81 °C.
Next, `c1ccc(CSc2nc3ccccc3s2)cc1`: 39 to 40 °C; `Cc1cn(NCCCc2ccncc2F)c2ccc(O)cc12`: 157 to 160 °C.
As for `CC(C)(C)OC(=O)Nc1cc(CC#N)c(C#Cc2ccccc2)cc1N`, the melting point turned out to be 143 °C.
`CC(C)c1cccc(CCCO)c1NC(=O)CC1c2ccccc2Oc2ccccc21`: the melting point lay within 218 to 219 °C.
`CCCCCCCc1ccc(C(=O)CCCCC(=O)O)cc1` displayed a melting point of 80 to 81 °C.
Consider `CC1=C(C(O)c2ccc3c(c2)CCN(C(N)=O)C3)C(C)(C)CC1` (stereo not given), for which the melting point fell in the range of 68.6 to 69.6 °C.
The result for `OCCc1nccn1CCCCc1ccc(OCc2coc(/C=C/c3ccc(F)cc3)n2)cc1` reads 130 to 132 °C; that for `CCc1ccccc1-c1nc(-c2ccccc2)n[nH]1`, 124 to 126 °C.
Next, `CCCc1nn(C)c2c1N=C(c1cc(/C=C/C(=O)N(C)C)ccc1OCC)NC2`: 219 to 221 °C; `Cc1cc2c(cc1C(=O)N=C(N)N)S(=O)(=O)CC2(C)O` (stereo not given): 243 to 245 °C.
Next, `CN1CCN(C(=O)CN2C(=O)C(NC(=O)OCc3ccccc3)N=C(c3ccccc3)c3ccccc32)CC1` (stereo not given): 200 to 202 °C; `COC(=O)COc1cccnc1Br`: 63 to 64 °C; `O=C(NNC(=O)c1occ(-c2ccccc2)c1-c1ccccc1)c1ccc(O)c([N+](=O)[O-])c1`: 214 to 217 °C.
For the compound `CC1(C)CNc2cc(C(F)(F)F)ccc2C1=O`, the melting point is 121 to 122 °C.
Next, `COc1ccccc1N1CCN(Cc2c(C3CC3)nn(-c3ccccc3)c2N)CC1`: 70 to 74 °C; `Cc1cc(NC2=NCCN2)n(-c2cccc3ccccc23)n1`: 221 to 224 °C; `c1ccc2oc(-c3ccc(-c4nc5ccccc5o4)cc3)nc2c1`: 318 to 328 °C.
Next, `O=C(c1ccc(Cl)cc1)c1ccc2nc(Cl)cc(CCc3cccc(Cl)c3)c2c1`: 180 °C.
Take `O=C(Cc1ccc(F)cc1)c1c(O)c2cccnc2n(-c2ccccc2)c1=O`: the melting point was in the range of 185 to 187 °C.
Next, `CCOC(=O)C1(C(=O)OCC)Cc2ccc(OC)c(Cl)c2O1`: 97 to 99 °C; `COc1ccc(-c2cc(=O)n(CCc3ccc(OC)c(OC)c3)nc2-c2ccc(OC)cc2)cc1`: 131 °C.
Next, `COc1ccc(CCOc2nccc(-c3cccc(C(=O)O)c3)n2)cc1OC`: 171 to 172 °C; `COc1ccc2c(c1)C(=O)c1c-2c(NCCCN(C)C)nc2ccccc12`: 113 to 114 °C; `N#Cc1nn(-c2c(Cl)cccc2Cl)c(N)c1-c1ccco1`: 223 °C.
Next, `O=C(c1ccccc1)N(CC(=O)N1c2ccccc2N(Cc2ccccc2)C(=O)[C@H]2CCC[C@H]21)Cc1ccccc1` (relative stereo): 166 to 168 °C; `NS(=O)(=O)c1cc(C(=O)CCCC(=O)O)cc2c1OCC2`: 207 to 209 °C; `O=C(O)c1cnn2ccc(-c3ccc(Cl)cc3)nc12`: 309 to 311 °C.
The compound `Cc1cc2c(c3c1NC(=O)CC3(C)C)OC(CO)C2` (stereo not given) yielded a melting point of 165 to 166 °C.
On to `O=C(O)CCC(Cc1ccc(Cl)c(Cl)c1)(C(=O)C=Cc1ccc(Cl)cc1)c1ccccc1` (stereo not given), for which the melting point is 155 to 156 °C.
Next, `CC(=O)SC(CC(=O)c1ccc(Oc2ccccc2)cc1)C(=O)O` (stereo not given): 106 °C; `COc1cc2c(c(Cl)c1Cl)S(=O)(=O)C(c1ccccc1F)=C2`: 267 to 268 °C.
The result for `COc1ccc(OCCCN(Cc2cccc(O)c2)c2nc3ccccc3o2)cc1` reads 104 °C; that for `CCCCCC(OC(C)=O)c1ccccc1COc1cccc2ccc(=O)[nH]c12` (stereo not given), 92 to 95 °C.
Next, `COC(=O)CCCCCCC(C(=O)OC)S(C)(=O)=O` (stereo not given): 47 to 48 °C.
`COc1ccccc1Nc1ncccc1[N+](=O)[O-]` gave a melting point of 151 to 153 °C.
As to `CCCCc1ccc(NCCS(=O)(=O)NCCCOc2cccc(CN3CCCCC3)c2)cc1`, the melting point fell in the range of 115 to 119 °C.
The result for `CC(C)C1NS(=O)(=O)N(COC(=O)c2c(Cl)cccc2Cl)C1=O` (stereo not given) reads 151 to 152 °C.
Turning to `COC(=O)CC(NC(=O)C(CSC(C)=O)Cc1ccccc1)c1ccc2ccccc2c1` (stereo not given), the melting point fell in the range of 133 to 135 °C.
Next, `CCCN1CC(CSC)=C[C@H]2Cc3n[nH]cc3C[C@@H]21` (relative stereo): 133 to 134 °C; `COc1cc(CCCCC2OC(=O)NC2=O)ccc1OCc1coc(/C=C/c2ccc3ccccc3c2)n1` (stereo not given): 169 to 170 °C.
Next, `O=C(c1cccs1)c1cnn2c(-c3cccc(-c4nnn(CCN5CCOCC5)n4)c3)ccnc12`: 103 °C; `CNC(=O)c1cccc(NC(=O)COc2ccccc2C)c1`: 148 °C; `CC1(C)Cc2nc(C3CCCC3)c(C(=O)c3ccc(C(F)(F)F)cc3)c(-c3ccsc3)c2C(O)C1` (stereo not given): 179 to 182 °C.
Take `CN1CCCCC1CCc1ccccc1NC(=O)c1ccc(C(C)(C)C)cc1` (stereo not given): the melting point lay in the range of 101 to 120 °C.
The result for `CCOC(=O)CCC(=O)Nc1ccc(-c2c[nH]c(=O)cn2)cc1` reads 250 °C.
Next, `O=c1[nH][nH]c(=O)c2c(O)c3cc(Cl)ccc3nc12`: 228 to 230 °C; `CCOC(=O)c1ccc(C(F)(F)F)cc1N`: 42 to 43 °C.
Next, `COC(=O)c1nc(Cl)c(Cl)c(N)c1OC`: 119 to 121 °C; `COC(=O)c1ccc(CN([C@@H](CO)c2ccccc2)S(=O)(=O)c2ccc(Cl)cc2)cc1`: 104 to 106 °C; `CNc1ncn(C)c1C(=O)NCc1ccccc1`: 110 to 111 °C.

The values are drawn from a melting point compilation (Tetko et al.; mined from patent text by program, amines drawn as free bases though some values may be those of a salt).
